Reference: US20020018792A1, “Skin care anti-sebum compositions containing 3,4,4-trichlorocarbanilide” (Unilever Home & Personal Care USA, Division of Conopco, Inc., priority 2000, published 2002)
Entries after “also recorded” stand apart in the source; their conditions may differ. Read-outs that look alike come from different tables or passages of the source.

Legend:
human sebocytes [1] = assay: in vitro sebum suppression: 14C-acetate label remaining in sebocytes; assay type: cell-based; conditions: for activity at 1 µM / activity at 10 µM: Homo sapiens, read-out: % of Control
Description: Secondary cultures of human sebocytes obtained from an adult […] were grown in 48-well tissue culture plates (Costar Corp.; Cambridge, Mass.) until two days post-confluence. Sebocyte growth medium consisted of Clonetics Keratinocyte Basal Medium (KBM) supplemented with 14 μg/ml bovine pituitary extract, 0.4 μg/ml hydrocortisone, 5 μg/ml insulin, […], 1.2×10^-10 M cholera toxin, 100 units/ml penicillin, and 100 μg/ml streptomycin. All cultures were incubated at 37° C. in the presence of 7.5% CO2. Medium was changed three times per week.
On the day of experimentation, the growth medium was removed and the sebocytes washed three times with sterile Dulbecco's Modified Eagle Medium (DMEM; phenol red free). Fresh DMEM was added to each sample (triplicates) with 1-5 microliter of test agent solubilized in ethanol. Controls consisted of addition of ethanol alone. Each plate was returned to the incubator for 20 hours.
This was followed by the addition of 14C-acetate buffer (5 mM final concentration, 56 mCi/mmol specific activity). Sebocytes were returned to the incubator for four hours afterwhich each culture was rinsed three times with phosphate buffered saline to remove unbound label. Radioactive label remaining in the sebocytes was harvested and counted using a Beckman scintillation counter.

human sebocytes [2] = assay: lactate dehydrogenase activity in sebocyte culture supernatant; assay type: cell-based; parameters: key: A340 at 5 min minus initial reading; higher = more LDH; conditions: after 20 hours
Description: For the experiments summarized in Tables 1 and 2, lactate dehydrogenase amount was also measured. After 20 hours, 25 μl of supernatant was removed from each well and transferred to a 96-well plate. A vial of lactate dehydrogenase reagent (LD-L-20; Sigma Diagnostics; Cat 228-20) was reconstituted with 20 ml of distilled water. 200 μl of this reconstituted reagent was added to each well and the plate immediately analyzed at 340 nm. After exactly five minutes at room temperature, the plate was re-analyzed at 340 nm. The amount of lactate dehydrogenase activity was calculated by subtracting the initial reading from the five minute reading (this value indicated below in column headed “LDH”). The higher the number, the more lactate dehydrogenase is present. Increased lactate dehydrogenase numbers are associated with cellular crisis. Experimental samples were compared to the value obtained with the ethanol treated control.

## O=S1(=O)OC(c2ccc(O)cc2)(c2ccc(O)cc2)c2ccccc21 [Phenol Red]
Human sebocytes [1]; Table 2, 1 μM
  activity at 1 µM: 91.4%
Human sebocytes [1]; Table 2, 10 μM
  activity at 10 µM: 70.9%
Human sebocytes [2]; Table 2, 1 μM, control 0.154
  LDH: 0.169
Human sebocytes [2]; Table 2, 10 μM, control 0.154
  LDH: 0.237

## O=C(Nc1ccc(Cl)cc1)Nc1ccc(Cl)c(Cl)c1 [TCC, 3,4,4-trichlorocarbanilide]
Human sebocytes [1]; Table 1, 1 μM, 20 hours then 4 hours 14C-acetate
  % of Control: 70.4%
Human sebocytes [1]; Table 1, 10 μM, 20 hours then 4 hours 14C-acetate
  % of Control: 1.0%
Human sebocytes [1]; Table 1, 100 μM, 20 hours then 4 hours 14C-acetate
  % of Control: 0.8%
Human sebocytes [1]; Table 1, 1 mM, 20 hours then 4 hours 14C-acetate
  % of Control: 0.8%
Human sebocytes [1]; Table 2
  sebum suppressive effectiveness compared with Phenol Red: more effective than Phenol Red
Human sebocytes [1]; Table 2, 100 nM
  % of Control: 80.4%
Human sebocytes [1]; Table 2, 500 nM
  % of Control: 54.6%
Human sebocytes [1]; Table 2, 1 μM
  % of Control: 20.9%
Human sebocytes [1]; Table 3
  sebum suppressive activity in the presence of retinol (retinoid): improved sebum suppressive activity; also recorded: significantly enhanced
Human sebocytes [1]; Table 3, 250 nM
  % of Control: 97.6%
Human sebocytes [1]; Table 3, 500 nM
  % of Control: 75.6%
Human sebocytes [1]; Table 3, 1 μM
  % of Control: 81.4%
Human sebocytes [1]; Table 3, 2.5 μM
  % of Control: 4.3%
Human sebocytes [1]; summary of Tables 1-3
  sebum suppressive activity: had sebum suppressive activity
Human sebocytes [2]; Table 1, 1 μM, 340 nm five minute minus initial reading, control 0.094
  LDH: 0.039
Human sebocytes [2]; Table 1, 10 μM, 340 nm five minute minus initial reading, control 0.094
  LDH: 0.059
Human sebocytes [2]; Table 1, 100 μM, 340 nm five minute minus initial reading, control 0.094
  LDH: 0.114
Human sebocytes [2]; Table 1, 1 mM, 340 nm five minute minus initial reading, control 0.094
  LDH: 0.190
Human sebocytes [2]; Table 2, 100 nM, control 0.154
  LDH: 0.137
Human sebocytes [2]; Table 2, 500 nM, control 0.154
  LDH: 0.136
Human sebocytes [2]; Table 2, 1 μM, control 0.154
  LDH: 0.183

## CC1=C(/C=C/C(C)=C/C=C/C(C)=C/CO)C(C)(C)CCC1 [Retinol]
Human sebocytes [1]; Table 3, 1 μM
  activity at 1 µM: 104%
Human sebocytes [1]; Table 3, 10 μM
  activity at 10 µM: 102%
